Laboratory results published in ChEMBL document CHEMBL1126726 (J Med Chem, 1993).

Tests used:
[1] = molecular target: Serotonin 2 (5-HT2) receptor (Rattus norvegicus) (UniProt P30994+P08909+P14842); conditions: Cortex
[2] = organism: Oryctolagus cuniculus; assay: In vitro evaluation in rabbit basilar artery for maximal response; type: functional, organism-based
[3] = organism: Canis familiaris; assay: In vitro evaluation in the dog saphenous vein for maximal response; type: functional, organism-based; conditions: Canis lupus familiaris
[4] = organism: Oryctolagus cuniculus; assay: (§1) Intrinsic activity was measured as maximum contraction relative to 5-HT in rabbit basilar artery; type: functional
[5] = organism: Canis familiaris; assay: Intrinsic activity was measured as maximum contraction relative to 5-HT in dog saphenous vein; type: functional, Canis lupus familiaris
[6] = as §1; type: functional, Oryctolagus cuniculus
[7] = molecular target: Serotonin 2 (5-HT2) receptor (Homo sapiens) (UniProt P41595+P28223+P28335)
[8] = molecular target: T1, 5-hydroxytryptamine receptor 2C (Rattus norvegicus) (UniProt P08909)
T1 sequence (whole entry): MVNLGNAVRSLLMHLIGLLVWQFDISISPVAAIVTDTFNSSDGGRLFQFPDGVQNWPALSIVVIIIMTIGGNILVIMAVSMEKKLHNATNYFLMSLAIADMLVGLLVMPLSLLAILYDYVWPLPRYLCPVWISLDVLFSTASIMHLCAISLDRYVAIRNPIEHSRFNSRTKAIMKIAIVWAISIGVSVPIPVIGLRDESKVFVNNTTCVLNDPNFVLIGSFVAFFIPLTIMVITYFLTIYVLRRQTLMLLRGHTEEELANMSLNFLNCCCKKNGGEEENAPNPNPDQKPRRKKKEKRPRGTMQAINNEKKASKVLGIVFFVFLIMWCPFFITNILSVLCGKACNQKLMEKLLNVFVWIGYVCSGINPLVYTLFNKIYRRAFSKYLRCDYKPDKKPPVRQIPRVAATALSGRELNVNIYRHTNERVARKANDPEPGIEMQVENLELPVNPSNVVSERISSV

Sequence of Serotonin 2 (5-HT2) receptor (Homo sapiens) (P28223 whole entry, looked up): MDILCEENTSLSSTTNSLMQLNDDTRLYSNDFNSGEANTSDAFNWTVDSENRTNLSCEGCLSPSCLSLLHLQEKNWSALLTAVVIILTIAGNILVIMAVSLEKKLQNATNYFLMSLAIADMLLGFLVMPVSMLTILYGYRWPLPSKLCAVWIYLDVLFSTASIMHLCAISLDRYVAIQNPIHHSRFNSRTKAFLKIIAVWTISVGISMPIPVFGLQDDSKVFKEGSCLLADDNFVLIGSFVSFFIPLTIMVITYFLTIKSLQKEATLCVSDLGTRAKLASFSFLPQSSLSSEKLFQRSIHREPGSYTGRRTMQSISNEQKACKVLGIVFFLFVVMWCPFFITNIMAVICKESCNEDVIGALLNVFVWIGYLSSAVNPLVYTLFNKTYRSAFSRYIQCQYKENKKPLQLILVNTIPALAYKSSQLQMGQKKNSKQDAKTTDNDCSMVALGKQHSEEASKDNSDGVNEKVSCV
Sequence of Serotonin 2 (5-HT2) receptor (Homo sapiens) (P28335 whole entry, looked up): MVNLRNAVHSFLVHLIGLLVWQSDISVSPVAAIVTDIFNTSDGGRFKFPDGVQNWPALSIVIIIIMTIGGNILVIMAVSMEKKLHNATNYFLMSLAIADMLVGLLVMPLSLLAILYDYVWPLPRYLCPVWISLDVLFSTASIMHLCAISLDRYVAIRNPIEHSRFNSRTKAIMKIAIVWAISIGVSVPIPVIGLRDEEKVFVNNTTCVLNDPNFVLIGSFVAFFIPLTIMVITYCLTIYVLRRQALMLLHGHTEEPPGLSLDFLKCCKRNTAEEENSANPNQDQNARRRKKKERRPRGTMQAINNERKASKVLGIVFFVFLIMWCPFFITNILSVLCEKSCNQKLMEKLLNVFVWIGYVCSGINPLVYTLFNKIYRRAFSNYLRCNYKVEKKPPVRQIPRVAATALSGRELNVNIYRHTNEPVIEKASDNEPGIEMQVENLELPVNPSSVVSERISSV
Sequence of Serotonin 2 (5-HT2) receptor (Homo sapiens) (P41595 whole entry, looked up): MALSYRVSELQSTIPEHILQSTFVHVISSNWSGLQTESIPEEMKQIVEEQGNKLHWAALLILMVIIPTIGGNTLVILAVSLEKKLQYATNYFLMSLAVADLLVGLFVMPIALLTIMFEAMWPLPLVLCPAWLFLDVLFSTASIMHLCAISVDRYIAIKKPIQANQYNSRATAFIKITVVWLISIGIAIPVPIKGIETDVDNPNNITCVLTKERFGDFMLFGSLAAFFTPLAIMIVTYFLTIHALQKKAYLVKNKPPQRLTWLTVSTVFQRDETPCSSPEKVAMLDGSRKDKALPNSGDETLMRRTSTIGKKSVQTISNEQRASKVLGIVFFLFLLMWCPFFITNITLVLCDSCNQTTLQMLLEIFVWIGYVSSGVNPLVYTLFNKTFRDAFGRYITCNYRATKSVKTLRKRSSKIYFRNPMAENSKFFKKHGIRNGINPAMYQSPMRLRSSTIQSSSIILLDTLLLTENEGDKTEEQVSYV
Sequence of Serotonin 2 (5-HT2) receptor (Rattus norvegicus) (P14842 whole entry, looked up, one chain of several): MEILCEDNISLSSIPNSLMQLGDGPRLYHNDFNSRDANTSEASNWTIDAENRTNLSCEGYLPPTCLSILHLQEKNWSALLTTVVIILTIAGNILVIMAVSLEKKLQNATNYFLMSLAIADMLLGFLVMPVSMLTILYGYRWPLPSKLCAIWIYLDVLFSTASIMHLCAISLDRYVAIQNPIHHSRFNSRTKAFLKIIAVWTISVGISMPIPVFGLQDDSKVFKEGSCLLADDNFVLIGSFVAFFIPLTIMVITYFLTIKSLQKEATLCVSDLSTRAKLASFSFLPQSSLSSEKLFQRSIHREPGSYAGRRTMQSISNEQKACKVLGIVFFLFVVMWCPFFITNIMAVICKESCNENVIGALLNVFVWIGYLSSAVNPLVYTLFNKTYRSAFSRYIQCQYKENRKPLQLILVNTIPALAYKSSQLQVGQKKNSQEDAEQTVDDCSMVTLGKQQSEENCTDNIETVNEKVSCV
Sequence of Serotonin 2 (5-HT2) receptor (Rattus norvegicus) (P30994 whole entry, looked up, one chain of several): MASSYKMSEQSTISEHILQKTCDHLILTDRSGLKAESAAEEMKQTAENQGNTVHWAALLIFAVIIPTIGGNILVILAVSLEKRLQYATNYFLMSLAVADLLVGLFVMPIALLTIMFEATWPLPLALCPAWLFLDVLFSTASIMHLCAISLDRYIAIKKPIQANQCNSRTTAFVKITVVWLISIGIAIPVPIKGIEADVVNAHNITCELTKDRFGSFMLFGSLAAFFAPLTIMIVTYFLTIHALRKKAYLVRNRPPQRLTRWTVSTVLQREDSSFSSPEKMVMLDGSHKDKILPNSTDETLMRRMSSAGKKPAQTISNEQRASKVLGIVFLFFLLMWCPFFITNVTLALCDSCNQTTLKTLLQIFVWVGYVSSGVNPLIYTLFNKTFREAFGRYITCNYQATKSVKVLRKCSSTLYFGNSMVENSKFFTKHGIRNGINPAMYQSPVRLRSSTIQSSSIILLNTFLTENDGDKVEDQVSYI

CNS(=O)(=O)Cc1ccc2[nH]cc(CCN(C)C)c2c1
pKD [1]: > 4 | EC50 [2]: 2400 nM | EC50 [3]: 400 nM | IA [4]: 0.74 | IA [5]: 0.78

CCN(CC)C(=O)N[C@H]1C=C2c3cccc4[nH]cc(c34)C[C@H]2N(C)C1 [LISURIDE]
IA [4]: 0.73 | IA [5]: 0.73

NCCc1c[nH]c2ccc(O)cc12 [SEROTONIN]
IA [6]: 1 | IA [5]: 1

NCCc1c[nH]c2ccc(C(N)=O)cc12
pKD [7]: 4.7 | pKD [8]: 6.2
